# Laboratory results published in PubChem BioAssay AID342 (DTP/NCI, 2004).
# Where “and” joins values, the source holds several entries; their conditions need not be identical. Identical values can stand only once.
# System: Swiss mice, Sarcoma 180 sc, mean tumor weight T/C
# Test: NCI In Vivo Anticancer Drug Screen. Data for tumor model Sarcoma 180 (subcutaneous) in Swiss mice
# Details: endpoint: mean tumor weight, higher = larger tumour
# Summary of the method: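 Tumor-bearing mice, transplantable tumor; readout survival or tumor size; result = T/C, treated vs vehicle control.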
structure (smiles),measurement,setting,value
NC(=O)c1[nH]cnc1/N=N/N(Cc1ccccc1)Cc1ccccc1,T/C,"dose: 15.5 mg/kg/injection, schedule: Q#A X014 (ip), vehicle: carboxymethylcellulose (CMC)",49 % of control
same,T/C,"dose: 31.0 mg/kg/injection, schedule: Q#A X014 (ip), vehicle: carboxymethylcellulose (CMC)",59 % of control
same,T/C,"dose: 62.5 mg/kg/injection, schedule: Q#A X014 (ip), vehicle: carboxymethylcellulose (CMC)",61 % of control
O=C1N(Cl)C(=O)C(c2ccccc2)(c2ccc(F)cc2)N1Cl (stereo not drawn),T/C,"dose: 17.5 mg/kg/injection, schedule: Q#A X014 (ip), vehicle: methylcellulose (MC)",121 % of control
same,T/C,"dose: 42.5 mg/kg/injection, schedule: Q#A X014 (ip), vehicle: methylcellulose (MC)",88 % of control
same,T/C,"dose: 62.5 mg/kg/injection, schedule: Q#A X014 (ip), vehicle: methylcellulose (MC)",75 % of control
CN1C=c2c3c(ccc2=C2C=CC4C=C5OCOC5=CC4=C21)OCO3 (stereo not drawn),T/C,"dose: 1.3 mg/kg/injection, schedule: Q#A X014 (ip), vehicle: saline",105 % of control
same,T/C,"dose: 2.0 mg/kg/injection, schedule: Q#A X014 (ip), vehicle: saline",82 % of control
same,T/C,"dose: 3.0 mg/kg/injection, schedule: Q#A X014 (ip), vehicle: saline",79 % of control and 96 % of control
same,T/C,"dose: 10.0 mg/kg/injection, schedule: Q#A X014 (ip), vehicle: saline",28 % of control
same,T/C,"dose: 12.0 mg/kg/injection, schedule: Q#A X014 (oral), vehicle: saline",84 % of control
same,T/C,"dose: 18.0 mg/kg/injection, schedule: Q#A X014 (oral), vehicle: saline",70 % of control
same,T/C,"dose: 27.0 mg/kg/injection, schedule: Q#A X014 (oral), vehicle: saline",73 % of control
same,T/C,"dose: 60.0 mg/kg/injection, schedule: Q#A X014 (oral), vehicle: saline",53 % of control
C[C@]12CC[C@@H]3c4ccc(O)cc4CC[C@H]3[C@@H]1C[C@H](O)C2,T/C,"dose: 0.25 mg/kg/injection, schedule: Q#A X014 (sc), vehicle: steriod suspending solution",120 % of control
same,T/C,"dose: 0.5 mg/kg/injection, schedule: Q01DX007 (sc), vehicle: steriod suspending solution",110 % of control
same,T/C,"dose: 1.25 mg/kg/injection, schedule: Q01DX007 (sc), vehicle: steriod suspending solution",60 % of control
same,T/C,"dose: 1.25 mg/kg/injection, schedule: Q#A X014 (sc), vehicle: steriod suspending solution",99 % of control
same,T/C,"dose: 2.5 mg/kg/injection, schedule: Q#A X014 (sc), vehicle: steriod suspending solution",58 % of control
same,T/C,"dose: 10.0 mg/kg/injection, schedule: Q#A X014 (sc), vehicle: steriod suspending solution",73 % of control
O=P(Oc1ccccc1)(OP(=O)(Oc1ccccc1)N(CCCl)CCCl)N(CCCl)CCCl (stereo not drawn),T/C,"dose: 12.5 mg/kg/injection, schedule: Q#A X014 (ip), vehicle: other",85 % of control
same,T/C,"dose: 25.0 mg/kg/injection, schedule: Q#A X014 (ip), vehicle: other",76 % of control
same,T/C,"dose: 50.0 mg/kg/injection, schedule: Q#A X014 (ip), vehicle: other",112 % of control
CC(=O)OC(C)(C)/C=C/C(=O)[C@](C)(O)[C@H]1[C@H](O)C[C@@]2(C)[C@@H]3CC=C4[C@@H](C[C@H](O)C(=O)C4(C)C)[C@]3(C)C(=O)C[C@]12C,T/C,"dose: 0.4 mg/kg/injection, schedule: Q01DX007 (ip), vehicle: saline",58 % of control
same,T/C,"dose: 0.8 mg/kg/injection, schedule: Q01DX007 (ip), vehicle: saline",84 % of control
CCCCSc1ncnc2nc[nH]c12,T/C,"dose: 44.0 mg/kg/injection, schedule: Q01DX007 (ip), vehicle: carboxymethylcellulose (CMC)",55 % of control
same,T/C,"dose: 51.0 mg/kg/injection, schedule: Q01DX007 (ip), vehicle: carboxymethylcellulose (CMC)",53 % of control
same,T/C,"dose: 93.0 mg/kg/injection, schedule: Q01DX007 (ip), vehicle: carboxymethylcellulose (CMC)",41 % of control
CC(=O)Nc1c(Cl)cc2c(c1Cl)Cc1cc([N+](=O)[O-])ccc1-2,T/C,"dose: 222.0 mg/kg/injection, schedule: Q01DX007 (ip), vehicle: saline",59 % of control
C[C@]12CCc3c(ccc4cc(O)ccc34)[C@@H]1C[C@H](O)[C@@H]2O,T/C,"dose: 2.5 mg/kg/injection, schedule: Q01DX007 (sc), vehicle: steriod suspending solution",90 % of control
same,T/C,"dose: 10.0 mg/kg/injection, schedule: Q01DX007 (sc), vehicle: steriod suspending solution",95 % of control
CC(=O)c1cccc(NC2C(N)C(NC(=O)N(C)C)(C(C)O)C(C)(O)C2(O)COC(=O)c2c(C)cccc2O)c1 (stereo not drawn),T/C,"dose: 0.5 mg/kg/injection, schedule: Q01DX007 (ip), vehicle: other",88 % of control
same,T/C,"dose: 1.0 mg/kg/injection, schedule: Q01DX007 (ip), vehicle: other",81 % of control
same,T/C,"dose: 2.0 mg/kg/injection, schedule: Q01DX007 (ip), vehicle: other",110 % of control
same,T/C,"dose: 2.0 mg/kg/injection, schedule: Q01DX007 (ip), vehicle: saline",66 % of control
C=CCOc1ccc2c(c1)CC[C@@H]1[C@@H]2CC[C@@]2(C)[C@H]1CC[C@]2(C)O,T/C,"dose: 0.5 mg/kg/injection, schedule: Q#A X014 (sc), vehicle: steriod suspending solution",80 % of control
same,T/C,"dose: 5.0 mg/kg/injection, schedule: Q#A X014 (sc), vehicle: steriod suspending solution",116 % of control
same,T/C,"dose: 50.0 mg/kg/injection, schedule: Q#A X014 (sc), vehicle: steriod suspending solution",71 % of control
